Assay results published in ChEMBL document CHEMBL5376004, “Discovery and Development of Quinazolinones and Quinazolinediones for Ameliorating Nonalcoholic Fatty Liver Disease (NAFLD) by Modulating COP1-ATGL Axis” (J Med Chem, 2023).
Values after ≈ are worked out from the molar mass of the structure shown. Values belong to the compound of their own block, whether it stands above or below them. Active and inactive are the calls of the source. The calls are words filed in the database; no cut-off is given here.

Key:
COP1-AGTL (Homo sapiens) = COP1-AGTL (Homo sapiens) (UniProt Q96AD5+Q8NHY2); experiment: Induction of COP1 to ATGL stabilization (unknown origin) expressed in HEK293-A cells assessed as reduction in ATGL ubiquitination incubated for 6 hrs by Western blotting analysis; type: cell-based
[1] = Stability in human plasma assessed as compound remaining after 2 hrs; type: ADME, cell-free; conditions: read-out: Stability
[2] = Metabolic stability in mouse liver microsomes assessed as hepatic blood flow; type: ADME, Microsome; conditions: read-out: QH
[3] = Aqueous solubility of compound at pH 7.4; type: physicochemical
[4] = Metabolic stability in human liver microsomes assessed as intrinsic clearance per mg of protein; type: ADME, Microsome; conditions: read-out: CLH
[5] = Metabolic stability in human liver microsomes assessed as half life; type: ADME, Microsome
[6] = Metabolic stability in human liver microsomes assessed as hepatic blood flow; type: ADME, Microsome; conditions: read-out: QH
HepG2 = experiment: Reduction in lipid droplets in human HepG2 cells by […] staining based confocal microscopic analysis; type: functional, cell-based
Hepatocyte = experiment: Upregulation of ATGL protein level in mouse primary hepatocytes incubated for 24 hrs by Western blotting analysis; type: functional, cell-based; conditions: dose 10-500 nM
[7] = Lipophilicity, logD of compound; type: physicochemical; conditions: octanol/water
[8] = Metabolic stability in mouse liver microsomes assessed as half life; type: ADME, Microsome
[9] = Stability in mouse plasma assessed as compound remaining after 2 hrs; type: ADME, cell-free; conditions: read-out: Stability
[10] = Metabolic stability in mouse liver microsomes assessed as intrinsic clearance per mg of protein; type: ADME, Microsome; conditions: read-out: CLH

Chain of COP1-AGTL (Homo sapiens) (Q8NHY2 whole entry, looked up): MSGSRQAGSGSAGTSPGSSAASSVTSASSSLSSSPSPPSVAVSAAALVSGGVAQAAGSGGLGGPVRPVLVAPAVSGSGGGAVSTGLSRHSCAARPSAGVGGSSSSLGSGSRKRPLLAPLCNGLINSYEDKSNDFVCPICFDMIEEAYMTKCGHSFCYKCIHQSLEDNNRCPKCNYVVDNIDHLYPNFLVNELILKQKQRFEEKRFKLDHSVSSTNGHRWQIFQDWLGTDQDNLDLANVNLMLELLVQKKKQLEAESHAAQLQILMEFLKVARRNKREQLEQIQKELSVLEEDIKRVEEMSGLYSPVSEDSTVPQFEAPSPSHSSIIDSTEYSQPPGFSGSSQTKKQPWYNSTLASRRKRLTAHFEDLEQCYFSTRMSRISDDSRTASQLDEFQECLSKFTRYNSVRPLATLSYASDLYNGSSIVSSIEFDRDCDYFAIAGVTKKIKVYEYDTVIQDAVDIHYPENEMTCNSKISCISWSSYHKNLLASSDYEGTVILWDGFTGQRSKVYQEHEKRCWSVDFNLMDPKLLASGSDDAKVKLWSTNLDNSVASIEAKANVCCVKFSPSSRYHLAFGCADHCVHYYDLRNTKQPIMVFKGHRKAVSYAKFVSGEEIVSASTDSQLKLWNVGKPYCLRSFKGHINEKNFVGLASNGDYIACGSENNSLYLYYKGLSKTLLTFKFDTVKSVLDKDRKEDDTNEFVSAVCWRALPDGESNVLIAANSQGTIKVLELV
Chain of COP1-AGTL (Homo sapiens) (Q96AD5 whole entry, looked up): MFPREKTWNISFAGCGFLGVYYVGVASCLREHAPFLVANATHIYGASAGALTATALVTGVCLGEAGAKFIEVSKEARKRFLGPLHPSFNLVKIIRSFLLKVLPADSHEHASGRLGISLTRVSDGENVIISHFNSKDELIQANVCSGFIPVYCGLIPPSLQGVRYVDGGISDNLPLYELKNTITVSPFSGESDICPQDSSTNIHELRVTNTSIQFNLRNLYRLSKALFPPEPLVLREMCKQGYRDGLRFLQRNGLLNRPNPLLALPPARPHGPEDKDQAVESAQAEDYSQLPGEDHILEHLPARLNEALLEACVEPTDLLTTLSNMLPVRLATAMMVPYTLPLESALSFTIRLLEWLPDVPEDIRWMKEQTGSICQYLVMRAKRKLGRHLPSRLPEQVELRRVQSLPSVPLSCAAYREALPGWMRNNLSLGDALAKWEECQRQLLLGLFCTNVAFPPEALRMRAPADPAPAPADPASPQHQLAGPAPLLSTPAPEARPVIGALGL

Compound: COCCn1cnc2ccc(NC(=O)N3CCCCC3)cc2c1=O
Activity (COP1-AGTL (Homo sapiens)): inactive

Compound: COCCn1cnc2ccc(NC(=O)N(C)C)cc2c1=O
Activity (COP1-AGTL (Homo sapiens)): inactive

Compound: COCCn1cnc2ccc(NC(=O)Nc3cccc(C(C)=O)c3)c(-c3ccccc3)c2c1=O
Activity (COP1-AGTL (Homo sapiens)): Active

Compound: CCn1cnc2ccc(NC(=O)Nc3cccc(C(C)=O)c3)cc2c1=O
Activity (COP1-AGTL (Homo sapiens)): inactive

Compound: COCCn1c(=O)c2cc(NC(=O)Nc3cccc(C(C)=O)c3)ccc2n(C)c1=O
Activity (COP1-AGTL (Homo sapiens)): Active

Compound: COCCn1cnc2ccc(NC(=O)NC3CCN(C)CC3)cc2c1=O
Activity (COP1-AGTL (Homo sapiens)): inactive

Compound: CC(=O)c1cccc(NC(=O)Nc2ccc3ncn(CCCN4CCOCC4)c(=O)c3c2)c1
Activity (COP1-AGTL (Homo sapiens)): inactive

Compound: CC(C)[N+](C)(CCOC(=O)C1c2ccccc2Oc2ccccc21)C(C)C [PROPANTHELINE]
remaining at 2 h [9]: 0%

Compound: COCCn1c(=O)[nH]c2ccc(NC(=O)Nc3cccc(C(C)=O)c3)cc2c1=O
remaining at 2 h [1]: 97.4%
hepatic extraction ratio [2]: 0.228
solubility [3]: 0.8 µg/mL (≈ 2.02 µM)
microsomal CLint [4]: 1.8 µL/min/mg
half-life [5]: 7.16 h
hepatic extraction ratio [6]: 0.076
Activity (COP1-AGTL (Homo sapiens)): Active
logD [7]: 2.17
half-life [8]: 1.25 h
remaining at 2 h [9]: 68.4%
microsomal CLint [10]: 11.4 µL/min/mg

Compound: COCCn1c(=O)c2cc(NC(=O)Nc3cccc(C(C)=O)c3)ccc2n(CCN2CCCC2)c1=O
remaining at 2 h [1]: 32.8%
hepatic extraction ratio [2]: 0.26
solubility [3]: 124 µg/mL (≈ 252 µM)
microsomal CLint [4]: 4.6 µL/min/mg
half-life [5]: 2.56 h
hepatic extraction ratio [6]: 0.175
Activity (COP1-AGTL (Homo sapiens)): Active
logD [7]: 2.58
half-life [8]: 0.895 h
remaining at 2 h [9]: 50.3%
microsomal CLint [10]: 13 µL/min/mg

Compound: COCCn1cnc2ccc(NC(=O)Nc3cccc(C(C)=O)c3)c(Br)c2c1=O
remaining at 2 h [1]: 10.3%
hepatic extraction ratio [2]: 0.167
solubility [3]: 3.4 µg/mL (≈ 7.4 µM)
Activity (COP1-AGTL (Homo sapiens)): Active
logD [7]: 1.95
half-life [8]: 1.78 h
microsomal CLint [10]: 7.5 µL/min/mg

Compound: COCCn1cnc2ccc(NC(=O)Nc3cccc(C(C)=O)c3)c(C3=CCNCC3)c2c1=O
Activity (COP1-AGTL (Homo sapiens)): inactive

Compound: CC(=O)c1cccc(NC(=O)Nc2ccc3ncn(CCN4CCCCC4)c(=O)c3c2)c1
Activity (COP1-AGTL (Homo sapiens)): inactive

Compound: COCCn1cnc2ccc(NC(=O)Nc3cccc(C(=O)c4ccccc4)c3)cc2c1=O
Activity (COP1-AGTL (Homo sapiens)): inactive

Compound: CCCCn1cnc2ccc(NC(=O)Nc3cccc(C(C)=O)c3)cc2c1=O
Activity (COP1-AGTL (Homo sapiens)): inactive

Compound: CC(=O)c1cccc(NC(=O)Nc2ccc3ncn(CCN4CCOCC4)c(=O)c3c2)c1
Activity (COP1-AGTL (Homo sapiens)): inactive

Compound: COCCn1cnc2ccc(NC(=O)Nc3ccccc3OC)cc2c1=O
Activity (COP1-AGTL (Homo sapiens)): inactive

Compound: COCCn1cnc2ccc(NC(=O)Nc3cccc(C(C)=O)c3)c(C3CCNCC3)c2c1=O
Activity (COP1-AGTL (Homo sapiens)): inactive

Compound: COCCn1c(=O)c2cc(NC(=O)Nc3cccc(C(C)=O)c3)ccc2n(C(C)C)c1=O
remaining at 2 h [1]: 80.8%
hepatic extraction ratio [2]: 0.536
solubility [3]: 2.8 µg/mL (≈ 6.39 µM)
microsomal CLint [4]: 14.6 µL/min/mg
half-life [5]: 0.793 h
hepatic extraction ratio [6]: 0.403
Activity (COP1-AGTL (Homo sapiens)): inactive
logD [7]: 2.67
half-life [8]: 0.272 h
remaining at 2 h [9]: 90.7%
microsomal CLint [10]: 42.6 µL/min/mg

Compound: COCCn1cnc2ccc(NC(=O)Nc3cccc(C(C)=O)c3)c(-c3ccc(OC)cc3)c2c1=O
Activity (COP1-AGTL (Homo sapiens)): inactive

Compound: CC(=O)c1cccc(NC(=O)Nc2ccc3ncn(CCN(C)C)c(=O)c3c2)c1
Activity (COP1-AGTL (Homo sapiens)): inactive

Compound: COCCn1cnc2ccc(NC(=O)Nc3cccc(C(C)=O)c3)c(-c3ccc(C(F)(F)F)cc3)c2c1=O
Activity (COP1-AGTL (Homo sapiens)): inactive

Compound: CC(=O)c1cccc(NC(=O)Nc2ccc3nc[nH]c(=O)c3c2)c1
Activity (COP1-AGTL (Homo sapiens)): inactive

Compound: COCCn1cnc2ccc(NC(=O)Nc3cccc(C(C)=O)c3)c(-c3ccc(OC)nc3)c2c1=O
Activity (COP1-AGTL (Homo sapiens)): inactive

Compound: COCCn1cnc2ccc(NC(=O)Nc3cccc(C(C)=O)c3)c(-c3ccc(F)cc3)c2c1=O
remaining at 2 h [1]: 44.9%
hepatic extraction ratio [2]: 0.925
solubility [3]: 31.9 µg/mL (≈ 67.2 µM)
Activity (COP1-AGTL (Homo sapiens)): inactive
logD [7]: 1.9
half-life [8]: 0.025 h
microsomal CLint [10]: 456 µL/min/mg

Now from value to compound, other results behind:

Activity (COP1-AGTL (Homo sapiens)): inactive
Compound: COCCn1cnc2ccc(NC(=O)Nc3ccc(C(F)(F)F)cc3)cc2c1=O

remaining at 2 h [1]: 73.9%
hepatic extraction ratio [2]: 0.231
solubility [3]: 21.5 µg/mL (≈ 58.4 µM)
microsomal CLint [4]: 4.9 µL/min/mg
half-life [5]: 2.4 h
hepatic extraction ratio [6]: 0.184
Activity (COP1-AGTL (Homo sapiens)): Active
logD [7]: 3.02
half-life [8]: 1.05 h
remaining at 2 h [9]: 84.5%
microsomal CLint [10]: 11 µL/min/mg
Compound: COCCn1cnc2ccc(NC(=O)Nc3cccc(OC)c3)cc2c1=O
Activity (HepG2): Active
Activity (Hepatocyte): Dose-Dependent Effect

remaining at 2 h [1]: 62%
hepatic extraction ratio [2]: 0.183
solubility [3]: 9.6 µg/mL (≈ 22.1 µM)
microsomal CLint [4]: 7.7 µL/min/mg
half-life [5]: 1.5 h
hepatic extraction ratio [6]: 0.262
Activity (COP1-AGTL (Homo sapiens)): inactive
logD [7]: 4.25
half-life [8]: 1.41 h
remaining at 2 h [9]: 52.6%
microsomal CLint [10]: 8.2 µL/min/mg
Compound: COCCn1cnc2ccc(NC(=O)Nc3cccc(C(=O)C(F)(F)F)c3)cc2c1=O

Activity (COP1-AGTL (Homo sapiens)): inactive
Compound: COCCn1cnc2ccc(NC(=O)Nc3ccc(F)cc3)cc2c1=O

Activity (COP1-AGTL (Homo sapiens)): Active
Compound: COCCn1cnc2ccc(NC(=O)Nc3ccc(OC)cc3)cc2c1=O

Activity (COP1-AGTL (Homo sapiens)): inactive
Compound: CCc1cccc(NC(=O)Nc2ccc3ncn(CCOC)c(=O)c3c2)c1

remaining at 2 h [1]: 74.6%
hepatic extraction ratio [2]: 0.462
solubility [3]: 27 µg/mL (≈ 61.9 µM)
microsomal CLint [4]: 15.3 µL/min/mg
half-life [5]: 0.753 h
hepatic extraction ratio [6]: 0.415
Activity (COP1-AGTL (Homo sapiens)): inactive
logD [7]: 2.54
half-life [8]: 0.367 h
remaining at 2 h [9]: 118%
microsomal CLint [10]: 31.7 µL/min/mg
Compound: COCCn1cnc2ccc(NC(=O)Nc3cccc(C(O)C(F)(F)F)c3)cc2c1=O (stereo unspecified)

Activity (COP1-AGTL (Homo sapiens)): inactive
Compound: COCCn1cnc2ccc(NC(=O)Nc3ccccc3C(F)(F)F)cc2c1=O

Activity (COP1-AGTL (Homo sapiens)): inactive
Compound: COCCn1cnc2ccc(NC(=O)Nc3cccc(C(F)(F)F)c3)cc2c1=O

Activity (COP1-AGTL (Homo sapiens)): inactive
Compound: COCCn1cnc2ccc(NC(=O)Nc3ccccc3)cc2c1=O

Activity (COP1-AGTL (Homo sapiens)): inactive
Compound: COCCn1cnc2ccc(NC(=O)Nc3cccc(C(C)O)c3)cc2c1=O (stereo unspecified)

Activity (COP1-AGTL (Homo sapiens)): Active
Compound: COCCCn1cnc2ccc(NC(=O)Nc3cccc(C(C)=O)c3)cc2c1=O
